# Experimental data as given in patent US11008572B2, “Methods and compositions for modulating splicing” (SKYHAWK THERAPEUTICS, INC., priority 2017, dated 2021).
# Where two headings read alike, the source gives them in different places.
# What was measured:
# Assay type in all cases: cell-based
# IKBKAP^Δ20 mRNA = test: IKBKAP splicing assay, qPCR; details: 24 hours of incubation
# Procedure: (§1) Various cells lines were treated with the SMSMs described herein. RNA was then isolated, cDNA synthesized, qPCR performed and the levels of IKBKAP targets of the SMSMs were determined.
# (§2) On the day of the experiment, a 96-well plate was seeded with the cell lines of interest. The cells were diluted with full growth media to a concentration of 2.0×10^5 cells/mL and 100 μL of cells were added to each well (20,000 cells per well). The cells were treated with a compound immediately after plating.
# (§3) The compounds were then added to the cell plate using the HP compound dispenser. In the initial experiment, a top concentration of 10 μM and an 8 point 4-fold dilution scheme was used. The stock compounds were made at a concentration of 5 mM, and the DMSO concentration was set to 0.2%. DMSO was used to normalize all the compound-containing wells and the untreated cells.
# (§4) The treated cells were incubated at 37° C. in a 5% CO2 incubator for the desired amount of time. Plates were placed in a plastic bag with a wet paper towel to prevent evaporation.
# (§5) RNA was isolated using the Cells to CT kit (ThermoFisher, AM1728). The cells were washed once with 100 μL cold PBS. 50 μL of lysis buffer was added to each well/tube (49.5 μL lysis buffer+0.5 μL DNase I per well/tube). The lysis reaction was mixed and incubated at room temperature for 5 minutes. 5 μL of stop solution was added directly into each cell lysis reaction and mixed by pipetting up and down 5 times. The plates/tubes were incubated at room temperature for 2 minutes then placed on ice if the cDNA synthesis was to be performed immediately. Otherwise, the plates/tubes were stored at −80° C.
# (§6) cDNA synthesis reactions were then performed. 40 μL RT master mix was added to PCR tubes or plate wells. 10 μL of RNA was added to each tube/well. The RT thermal cycler program was then run and tubes or plate wells were incubated at 37° C. for 1 hour, then at 95° C. for 5 minutes to deactivate the enzyme.
# (§7) The qPCR was performed using a QuantStudio 6 instrument (ThermoFisher) and the following cycling conditions and according to the tables below. All samples and standards were analyzed in triplicate. Cycle 1: 2 minutes at 50° C. Cycle 2: 10 minutes at 95° C. Cycle 3 (repeat 40 times): 15 seconds at 95° C., 1 minute at 60° C.
# (§8) The determined IKBKAP^FL and […] isoform quantities were then used to determine the IKBKAP^FL: IKBKAP^Δ20 ratio at increasing SMSM compound concentrations. The PPIA quantities were used in the normalization to account of cell proliferation effects of the compounds.
# (§9) An assay to measure the IKBKAP^FL mRNA and IKBKAP^Δ20 mRNA simultaneously in cell wells was performed. The RNA values were measured relative to DMSO control and also included a housekeeping gene, PPIA to ensure data was consistent. The mRNA values were measured after 24 hours of incubation with the SMSM compounds.
# IKBKAP^FL mRNA = test: IKBKAP splicing assay, qPCR; details: 24 hours of incubation
# Procedure: as §1, §2, §3, §4, §5, §6, §7, §8, §9
# [1] = test system: FOXM1^A2 mRNA and FOXM1^BC mRNA; test: Splicing assay (FOXM1), qPCR of isoform mRNAs
# How it was run: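 RT-qPCR read-out after 24 h compound exposure at 37° C., 0.2% DMSO, top dose 10 μM with 4-fold 8-point dilutions, 20,000 cells per well. Copy numbers from plasmid standard curves, PPIA-normalized, expressed as isoform ratio relative to DMSO.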
# A-673 cells = test: Cell viability, crystal violet staining; details: Homo sapiens, A673, cell viability
# How it was run: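 Readout is absorbance at 570 nm of crystal violet, taken up in 0.1 M sodium citrate in 50% ethanol after staining with 0.5% dye in 25% methanol. Plates held 5×10^3 cells per well, and compounds were added one day after seeding for 72 hours. Data are relative to vehicle, mean±SE.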
# [2] = Splicing (IC50), Example 22; details: spliced gene and cells not stated
# Procedure: A-673 cell viability […], splicing (IC50) and brain AUC/Plasma AUC of SMSMs were determined. As shown in the tables below SMSMs had high CNS exposure.
# [3] = FoxM1 BC mRNA decrease (exon included), read-out: Splice IC50 (nM) FoxM1 BC mRNA decrease (exon included)
# [4] = read-out: Splice EC50 (nM) FoxM1 A mRNA increase (exon excluded)
# [5] = read-out: A-673 IC50 (nM) Cell viability
# [6] = 24 h, FoxM1 BC mRNA decrease (exon included), 0.1-1000 nM, 24 hours, read-out: Splice IC50 (nM), FoxM1 BC mRNA decrease (exon included)
# [7] = FoxM1 A mRNA increase (exon excluded), 0.1-1000 nM, 24 hours, read-out: Splice EC50 (nM), FoxM1 A mRNA increase (exon excluded)
# [8] = read-out: A-673 IC50 (nM), Cell viability
Structure (SMILES),IC50 (IKBKAP^Δ20 mRNA),EC50 (IKBKAP^FL mRNA),"IC50 [1, 6]","EC50 [1, 7]",IC50 (A-673 cells; [8]),also measured
"C[C@]12CC[C@](C)(C[C@@H](Oc3ccc(-c4ccc(-c5cn[nH]c5)cc4O)nn3)C1)N2 [compound 152, 2-(6-(((1R,3s,5S)-1,5-dimethyl-8-azabicyclo[3.2.1]octan-3-yl)oxy)pyridazin-3-yl)-5-(1H-pyrazol-4-yl)phenol]",> 1000 nM,351 to 1000 nM,–,–,–,"IC50 [1, 3]: 10 to 100 nM; EC50 [1, 4]: 10 to 100 nM; IC50 (A-673 cells; [5]): 101 to 250 nM"
"CN(c1ccc(-c2ccc(-c3cn[nH]c3)cc2O)nn1)[C@@H]1C[C@H]2COC[C@@H](C1)N2 [compound 154, 2-(6-(((1R,5S,7r)-3-oxa-9-azabicyclo[3.3.1]nonan-7-yl)(methyl)amino)pyridazin-3-yl)-5-(1H-pyrazol-4-yl)phenol]",–,351 to 1000 nM,–,–,–,"IC50 [1, 3]: 10 to 100 nM; EC50 [1, 4]: 10 to 100 nM; IC50 (A-673 cells; [5]): 10 to 100 nM"
"CN(c1ccc(-c2cc(F)c(-c3cn[nH]c3)cc2O)nn1)[C@@H]1C[C@H]2CC[C@@H](C1)N2 [compound 161, 2-(6-(((1R,3s,5S)-8-azabicyclo[3.2.1]octan-3-yl)(methyl)amino)pyridazin-3-yl)-4-fluoro-5-(1H-pyrazol-4-yl)phenol]",< 200 nM,< 100 nM,–,–,–,"IC50 [1, 3]: < 10 nM; EC50 [1, 4]: < 10 nM; IC50 (A-673 cells; [5]): < 10 nM"
"CN(c1ccc(-c2cc3cccnc3cc2O)nn1)[C@@H]1C[C@H]2CC[C@@H](C1)N2 [compound 162, 6-(6-(((1R,3s,5S)-8-azabicyclo[3.2.1]octan-3-yl)(methyl)amino)pyridazin-3-yl)quinolin-7-ol]",201 to 1000 nM,–,–,–,–,IC50 (A-673 cells; [5]): 251 to 500 nM
"CN(c1ccc(-c2ccc(-n3ccnc3)cc2O)nn1)[C@@H]1C[C@H]2CC[C@@H](C1)N2 [compound 217, 2-(6-(((1R,3s,5S)-8-azabicyclo[3.2.1]octan-3-yl)(methyl)amino)pyridazin-3-yl)-5-(1H-imidazol-1-yl)phenol]",201 to 1000 nM,351 to 1000 nM,10 to 100 nM,< 10 nM,10 to 100 nM,–
"Cc1cn(-c2ccc(-c3ccc(N(C)[C@@H]4C[C@H]5CC[C@@H](C4)N5)nn3)c(O)c2)cn1 [compound 218, 2-(6-(((1R,3s,5S)-8-azabicyclo[3.2.1]octan-3-yl)(methyl)amino)pyridazin-3-yl)-5-(4-methyl-1H-imidazol-1-yl)phenol]",> 1000 nM,351 to 1000 nM,< 10 nM,< 10 nM,10 to 100 nM,–
"CN(c1ccc(-c2ccc(-n3nccn3)cc2O)nn1)[C@@H]1C[C@H]2CC[C@@H](C1)N2 [compound 223, 2-(6-(((1R,3s,5S)-8-azabicyclo[3.2.1]octan-3-yl)(methyl)amino)pyridazin-3-yl)-5-(2H-1,2,3-triazol-2-yl)phenol]",> 1000 nM,101 to 350 nM,< 10 nM,< 10 nM,10 to 100 nM,"IC50 ([1]; Homo sapiens, A-375, 24 h, A-375 cells, 24 hours, table does not say EC50 or IC50, read-out: FOXM1): 11 to 100 nM; IC50 ([1]; Homo sapiens, BXPC-3, 24 h, BxPC-3 cells, 24 hours, table does not say EC50 or IC50, read-out: FOXM1): 200 to 500 nM; IC50 ([1]; Homo sapiens, DU-145, 24 h, DU-145 cells, 24 hours, table does not say EC50 or IC50, read-out: FOXM1): 200 to 500 nM; IC50 ([1]; Homo sapiens, Daoy, 24 h, Daoy cells, 24 hours, table does not say EC50 or IC50, read-out: FOXM1): 101 to 200 nM; IC50 ([1]; Homo sapiens, G-401, 24 h, G-401 cells, 24 hours, table does not say EC50 or IC50, read-out: FOXM1): 11 to 100 nM; IC50 ([1]; Homo sapiens, SH-SY5Y, 24 h, SH-SY5Y cells, 24 hours, table does not say EC50 or IC50, read-out: FOXM1): 11 to 100 nM; IC50 ([1]; Homo sapiens, TT, 24 h, T.T cells, 24 hours, table does not say EC50 or IC50, read-out: FOXM1): 101 to 200 nM"
"Cc1ncc(-c2ccc(-c3ccc(N(C)[C@@H]4C[C@H]5CC[C@@H](C4)N5)nn3)c(O)c2)o1 [compound 228, 2-(6-(((1R,3s,5S)-8-azabicyclo[3.2.1]octan-3-yl)(methyl)amino)pyridazin-3-yl)-5-(2-methyloxazol-5-yl)phenol]",> 1000 nM,351 to 1000 nM,10 to 100 nM,< 10 nM,10 to 100 nM,–
"CN(c1ccc(-c2ccc(-c3cnn(C)c(=O)c3)cc2O)nn1)[C@@H]1C[C@H]2CC[C@@H](C1)N2 [compound 238, 5-(4-(6-(((1R,3s,5S)-8-azabicyclo[3.2.1]octan-3-yl)(methyl)amino)pyridazin-3-yl)-3-hydroxyphenyl)-2-methylpyridazin-3(2H)-one]",201 to 1000 nM,101 to 350 nM,10 to 100 nM,< 10 nM,10 to 100 nM,–
"CN(c1ccc(-c2ccc(-c3ccn(C)c(=O)c3)cc2O)nn1)[C@@H]1C[C@H]2CC[C@@H](C1)N2 [compound 240, 4-(4-(6-(((1R,3s,5S)-8-azabicyclo[3.2.1]octan-3-yl)(methyl)amino)pyridazin-3-yl)-3-hydroxyphenyl)-1-methylpyridin-2(1H)-one]",201 to 1000 nM,101 to 350 nM,< 10 nM,< 10 nM,10 to 100 nM,–
"Cc1nnnn1-c1ccc(-c2ccc(O[C@@H]3C[C@H]4CC[C@@H](C3)N4)nn2)c(O)c1 [compound 257, 2-(6-(((1R,3s,5S)-8-azabicyclo[3.2.1]octan-3-yl)oxy)pyridazin-3-yl)-5-(5-methyl-1H-tetrazol-1-yl)phenol]",–,–,–,–,> 1000 nM,IC50 [2]: 121 nM
"CN(c1ccc(-c2ccc(-c3cc(=O)n(C)cn3)cc2O)nn1)[C@H]1C[C@]2(C)CCC[C@](C)(C1)N2 [compound 266, 6-(4-(6-(((1R,3s,5S)-1,5-dimethyl-9-azabicyclo[3.3.1]nonan-3-yl)(methyl)amino)pyridazin-3-yl)-3-hydroxyphenyl)-3-methylpyrimidin-4(3H)-one]",< 200 nM,< 100 nM,–,–,10 to 100 nM,–
"Oc1cc(-c2cn[nH]c2)c(F)cc1-c1ccc(O[C@@H]2C[C@H]3CCC[C@@H](C2)N3)nn1 [compound 278, 2-(6-(((1R,3s,5S)-9-azabicyclo[3.3.1]nonan-3-yl)oxy)pyridazin-3-yl)-4-fluoro-5-(1H-pyrazol-4-yl)phenol]",< 200 nM,101 to 350 nM,–,–,10 to 100 nM,–
"[2H]C([2H])([2H])n1ncc(-c2ccc(-c3ccc(N(C)[C@@H]4C[C@H]5CC[C@@H](C4)N5)nn3)c(O)c2)cc1=O [compound 282, 5-(4-(6-(((1R,3s,5S)-8-azabicyclo[3.2.1]octan-3-yl)(methyl)amino)pyridazin-3-yl)-3-hydroxyphenyl)-2-(methyl-d3)pyridazin-3(2H)-one]",201 to 1000 nM,101 to 350 nM,10 to 100 nM,< 10 nM,10 to 100 nM,–
"CN(c1ccc(-c2ccc(-c3cn[nH]c3)cc2O)nn1)C1[C@H]2CN(C(=O)CCN)C[C@@H]12 (stereo partly drawn) [compound 315, 3-amino-1-((1R,5S)-6-((6-(2-hydroxy-4-(1H-pyrazol-4-yl)phenyl)pyridazin-3-yl)(methyl)amino)-3-azabicyclo[3.1.0]hexan-3-yl)propan-1-one]",> 1000 nM,> 1000 nM,–,–,–,–
